Measured values published in patent US11358969B2, “Indole AHR inhibitors and uses thereof” (Ikena Oncology, Inc., priority 2017, dated 2022).
Like-named read-outs stand apart in the source and are kept apart here.

Tests used:
AHR = target: T1, AHR (UniProt P35869); assay: DRE-Luciferase Reporter Assay (Alternate Method) (Example 1B); format: cell-based, murine or human; details: cell line and AHR activating ligand not specified
T1 construct: IC50
T1 sequence (P35869 1-848): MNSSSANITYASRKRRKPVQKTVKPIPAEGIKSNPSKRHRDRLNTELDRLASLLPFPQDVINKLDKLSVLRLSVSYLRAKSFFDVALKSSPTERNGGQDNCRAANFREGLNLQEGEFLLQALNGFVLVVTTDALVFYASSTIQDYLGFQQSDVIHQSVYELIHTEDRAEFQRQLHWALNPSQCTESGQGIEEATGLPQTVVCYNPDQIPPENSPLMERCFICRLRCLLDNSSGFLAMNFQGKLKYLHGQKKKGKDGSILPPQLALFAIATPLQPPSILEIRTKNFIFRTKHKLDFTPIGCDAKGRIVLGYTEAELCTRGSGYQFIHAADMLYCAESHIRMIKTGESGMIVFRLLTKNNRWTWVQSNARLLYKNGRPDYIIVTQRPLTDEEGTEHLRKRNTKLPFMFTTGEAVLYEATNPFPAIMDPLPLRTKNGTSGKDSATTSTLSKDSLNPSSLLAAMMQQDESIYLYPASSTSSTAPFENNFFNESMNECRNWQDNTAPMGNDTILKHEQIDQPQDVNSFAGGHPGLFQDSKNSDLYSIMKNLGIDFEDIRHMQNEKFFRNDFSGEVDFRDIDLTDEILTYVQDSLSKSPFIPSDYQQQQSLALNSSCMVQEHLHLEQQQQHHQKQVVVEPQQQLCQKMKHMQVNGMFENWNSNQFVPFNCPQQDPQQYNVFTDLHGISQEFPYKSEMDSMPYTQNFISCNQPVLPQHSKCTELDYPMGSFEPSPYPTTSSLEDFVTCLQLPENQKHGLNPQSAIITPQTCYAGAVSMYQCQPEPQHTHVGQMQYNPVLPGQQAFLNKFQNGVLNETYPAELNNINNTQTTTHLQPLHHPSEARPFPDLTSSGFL

Cyp1a1 = assay: In Vivo Mouse liver and spleen Cyp1a1 Modulation Assay (Example 1E); parameters: species or system C57BL/6 mice; details: po, with AHR agonist VAG539 30 mg/kg po, qPCR
Protocol: C57BL/6 mice, female, 6-8 weeks old, weighing approximately 18-20 g were purchased from Shanghai Lingchang Biological Technology Co., Ltd or other certified vendors and used in the studies. Animal husbandry, feeding and health conditions are according to animal welfare guidelines. VAG539 (30 mg/kg, po) was used as AHRagonist, and test compounds were formulated in suitable vehicles, typically 0.5% methylcellulose).
C57BL/6 mice (n=3 per group) were treated with AHR agonist alone or with AHR agonist and test compounds. Animals were sacrificed at 4 or 10 hours after treatment upon which their livers and spleens were collected and subsequently analyzed by qPCR. Normalized fold induction of cyp1a1 was determined by comparing mCYP1A1 and mGAPDH counts (ct) according to: normalized fold=2^−ΔΔCt. The percent inhibition was calculated according to: […]

[1] = Mouse Pharmacokinetic Study (Example 1C); format: in vivo; details: mouse, plasma, CD-1 mice; for Vd: read-out: Vdss
How it was run: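 CD-1 mice dosed intravenously or by oral gavage; plasma sampled at 0.167, 0.5, 1, 2, 4, 6, 12 and 24 h post-dose. Samples analyzed by LC/MS/MS (MRM, positive mode) against a plasma standard curve of 1.0–3000 ng/mL; PK parameters from non-compartmental analysis.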

[2] = 4 h, read-out: Cyp1a1 inhibition, Liver, 4 h
[3] = 4 h, read-out: Cyp1a1 inhibition, Spleen, 4 h
[4] = 10 h, read-out: Cyp1a1 inhibition, Liver, 10 h

Row | SMILES | IC50 (AHR) [nM] | inhibition at 30 mg/kg (Cyp1a1; [2]) [%] | bioavailability ([1]; po, 30 mg/kg) [%] | AUC(0-inf) ([1]; iv, 3 mg/kg) [ng·h/mL] | AUC(0-t) ([1]; iv, 3 mg/kg) [ng·h/mL] | clearance ([1]; iv, 3 mg/kg) [mL/min/kg] | half-life ([1]; iv, 3 mg/kg) [h] | Vd ([1]; iv, 3 mg/kg) [L/kg] | AUC(0-inf) ([1]; po, 30 mg/kg) [ng·h/mL] | AUC(0-t) ([1]; po, 30 mg/kg) [ng·h/mL] | Cmax ([1]; po, 30 mg/kg) [ng/mL] | Tmax ([1]; po, 30 mg/kg) [h] | half-life ([1]; po, 30 mg/kg) [h] | inhibition at 5 mg/kg (Cyp1a1; [2]) [%] | inhibition at 5 mg/kg (Cyp1a1; [3]) [%] | inhibition at 10 mg/kg (Cyp1a1; [2]) [%] | inhibition at 10 mg/kg (Cyp1a1; [3]) [%] | inhibition at 25 mg/kg (Cyp1a1; [2]) [%] | inhibition at 5 mg/kg (Cyp1a1; [4]) [%] | inhibition at 10 mg/kg (Cyp1a1; [4]) [%] | further results
1 | CC(C)c1cnn2c(NCCc3c[nH]c4ccccc34)cc(-c3cncc(F)c3)nc12 [I-2, N-(2-(1H-indol-3-yl)ethyl)-5-(5-fluoropyridin-3-yl)-3-isopropylpyrazolo[1,5-a]pyrimidin-7-amine] | < 500 | 50 | 12 | 610 | 554 | 82 | 1.99 | 9.6 | 743 | 730 | 182 | 0.2 | 3.9 |  |  |  |  |  |  |  | 
2 | Cc1cnn2c(N[C@@H]3CCc4[nH]c5ccccc5c4C3)nc(-c3cncc(F)c3)nc12 [I-201, (3R)—N-[2-(5-fluoro-3-pyridyl)-8-methyl-pyrazolo[1,5-a][1,3,5]triazin-4-yl]-2,3,4,9-tetrahydro-1H-carbazol-3-amine] | < 500 |  | 79 | 1330 | 1200 | 37.5 | 8.52 | 19.6 | 10600 | 9650 | 1410 | 1 | 7.16 | 58 | 40 | 72 | 46 | 86 | 44 | 59 | inhibition at 25 mg/kg (Cyp1a1; [3]): 72%; inhibition at 25 mg/kg (Cyp1a1; [4]): 97%
3 | Cc1cnn2c(NCCc3c[nH]c4ccccc34)cc(-c3cncc(F)c3)nc12 [I-70, 5-(5-Fluoro-3-pyridyl)-N-[2-(1H-indol-3-yl)ethyl]-3-methyl-pyrazolo[1,5-a]pyrimidin-7-amine] |  | 98 | 26 | 872 | 862 | 54.9 | 1.08 | 3.2 | 1990 | 1940 | 900 | 0.5 | 2.26 | 93 | 79 | 99 | 88 |  | 96 | 81 | inhibition at 1 mg/kg (Cyp1a1; [2]): 52%; inhibition at 1 mg/kg (Cyp1a1; [3]): 38%; inhibition at 2 mg/kg (Cyp1a1; [2]): 83%; inhibition at 2 mg/kg (Cyp1a1; [3]): 65%; inhibition at 1 mg/kg (Cyp1a1; [4]): 34%; inhibition at 2 mg/kg (Cyp1a1; [4]): 63%
4 | CC(C)c1cnn2c(N[C@@H]3CCc4[nH]c5ccccc5c4C3)nc(-c3cncc(F)c3)nc12 [I-40, (3R)—N-[2-(5-Fluoro-3-pyridyl)-8-isopropyl-pyrazolo[1,5-a][1,3,5]triazin-4-yl]-2,3,4,9-tetrahydro-1H-carbazol-3-amine] | < 500 |  | 75 | 1210 | 1070 | 41.2 | 8.4 | 24 | 9140 | 7560 | 853 | 2 | 8.8 | 77 | 34 | 93 | 74 | 98 | 48 | 75 | inhibition at 25 mg/kg (Cyp1a1; [3]): 96%; inhibition at 25 mg/kg (Cyp1a1; [4]): 97%
